Data reported in EP0238060B1, “Cephalosporin derivatives, processes for their preparation and antibacterial agents” (Banyu Pharmaceutical Co., Ltd., priority 1986, dated 1987).
Converted amounts (≈) assume the structure as drawn.

Tests used:
Assay in all cases: In vitro antibacterial activity, agar plate dilution method (MIC)
Ps.cepacia 23 = assay type: cell-based, Pseudomonas cepacia; conditions: Burkholderia cepacia, 23, 16 h, read-out: Minimum Inhibitory Concentration (MIC: µg/ml)
Protocol: (§1) The in vitro antibacterial activities of the compounds of the present invention against various microorganisms, were measured by the following agar plate dilution method. One platinum loopfull of each test microorganism incubated overnight in Mueller Hinton broth, was inoculated to Mueller Hinton agar (inoculum size: l0⁶ CFU/ml). Such culture media containing various antibiotics in various concentrations were prepared. After incubation at 37°C for l6 hours, the minimum inhibitory concentrations (MIC: µg/ml) were measured. As comparative compounds, Cefotaxime, Ceftazidime and the compounds of Reference Examples l to 4 were employed.

E.coli CSH2 (RK1) = assay type: cell-based; conditions: Escherichia coli, 16 h, read-out: Minimum Inhibitory Concentration (MIC: µg/ml)
Protocol: as §1

S.epidermidis IAM12012 = assay type: cell-based; conditions: Staphylococcus epidermidis, IAM12012, 16 h, read-out: Minimum Inhibitory Concentration (MIC: µg/ml)
Protocol: as §1

P.vulgaris HX-19 = assay type: cell-based; conditions: Proteus vulgaris, HX19, 16 h, read-out: Minimum Inhibitory Concentration (MIC: µg/ml)
Protocol: as §1

C.freundii GN346/16 = assay type: cell-based; conditions: Citrobacter freundii, GN346, 16 h, read-out: Minimum Inhibitory Concentration (MIC: µg/ml)
Protocol: as §1

S.aureus JS1 = assay type: cell-based; conditions: Staphylococcus aureus, JS1, 16 h, read-out: Minimum Inhibitory Concentration (MIC: µg/ml)
Protocol: as §1

P.vulgaris No. 33 = assay type: cell-based; conditions: Proteus vulgaris, NO.33, 16 h, read-out: Minimum Inhibitory Concentration (MIC: µg/ml)
Protocol: as §1

E.coli GN5482 = assay type: cell-based; conditions: Escherichia coli, GN5482, 16 h, read-out: Minimum Inhibitory Concentration (MIC: µg/ml)
Protocol: as §1

S.aureus BB5703 = assay type: cell-based; conditions: Staphylococcus aureus, BB5703, 16 h, read-out: Minimum Inhibitory Concentration (MIC: µg/ml)
Protocol: as §1

Ps.aeruginosa AK 109 = assay type: cell-based; conditions: Pseudomonas aeruginosa, AK109, 16 h, read-out: Minimum Inhibitory Concentration (MIC: µg/ml)
Protocol: as §1

E.cloacae 963 = assay type: cell-based; conditions: Enterobacter cloacae, 963, 16 h, read-out: Minimum Inhibitory Concentration (MIC: µg/ml)
Protocol: as §1

E.coli CSH(RE45) = assay type: cell-based; conditions: Escherichia coli, 16 h, read-out: Minimum Inhibitory Concentration (MIC: µg/ml)
Protocol: as §1

M.luteus ATCC9341 = assay type: cell-based; conditions: Micrococcus luteus, ATCC9341, 16 h, read-out: Minimum Inhibitory Concentration (MIC: µg/ml)
Protocol: as §1

Ps.aeruginosa IFO3445 = assay type: cell-based; conditions: Pseudomonas aeruginosa; Ps.aeruginosa IFO3445; Mueller Hinton agar, inoculum 10⁶ CFU/ml, 37°C, 16 hours; read-out: Minimum Inhibitory Concentration (MIC: µg/ml)
Protocol: as §1

S.marcescens No. 16-2 = assay type: cell-based; conditions: Serratia marcescens, NO.162, 16 h, read-out: Minimum Inhibitory Concentration (MIC: µg/ml)
Protocol: as §1

K.oxytoca GN10650 = assay type: cell-based; conditions: Klebsiella oxytoca, GN10650, 16 h, read-out: Minimum Inhibitory Concentration (MIC: µg/ml)
Protocol: as §1

A.calcoaceticus No. 4 = assay type: cell-based; conditions: Acinetobacter calcoaceticus, NO.4, 16 h, read-out: Minimum Inhibitory Concentration (MIC: µg/ml)
Protocol: as §1

E.coli NIHJ JC2 = assay type: cell-based; conditions: Escherichia coli, NIHJJC2, 16 h, read-out: Minimum Inhibitory Concentration (MIC: µg/ml)
Protocol: as §1

M.morganii GN5407 = assay type: cell-based; conditions: Morganella morganii, GN5407, 16 h, read-out: Minimum Inhibitory Concentration (MIC: µg/ml)
Protocol: as §1

C.freundii GN346 = assay type: cell-based; conditions: Citrobacter freundii, GN346, 16 h, read-out: Minimum Inhibitory Concentration (MIC: µg/ml)
Protocol: as §1

Ps.aeruginosa AKR17 = assay type: cell-based; conditions: Pseudomonas aeruginosa; Ps.aeruginosa AKR17; Mueller Hinton agar, inoculum 10⁶ CFU/ml, 37°C, 16 hours; read-out: Minimum Inhibitory Concentration (MIC: µg/ml)
Protocol: as §1

K.pneumoniae No. 42 = assay type: cell-based; conditions: Klebsiella pneumoniae, NO.42, 16 h, read-out: Minimum Inhibitory Concentration (MIC: µg/ml)
Protocol: as §1

S.aureus 209P NIHJ-JC1 = assay type: cell-based; conditions: Staphylococcus aureus, 16 h, read-out: Minimum Inhibitory Concentration (MIC: µg/ml)
Protocol: as §1

K.pneumoniae PCI-602 = assay type: cell-based; conditions: Klebsiella pneumoniae, PCI602, 16 h, read-out: Minimum Inhibitory Concentration (MIC: µg/ml)
Protocol: as §1

S.marcescens IAM 1184 = assay type: cell-based; conditions: Serratia marcescens, IAM1184, 16 h, read-out: Minimum Inhibitory Concentration (MIC: µg/ml)
Protocol: as §1

E.cloacae Nek 39 = assay type: cell-based; conditions: Enterobacter cloacae, NEK39, 16 h, read-out: Minimum Inhibitory Concentration (MIC: µg/ml)
Protocol: as §1

Ps.maltophilia GN 12873 = assay type: cell-based, Pseudomonas maltophilia; conditions: Stenotrophomonas maltophilia, GN12873, 16 h, read-out: Minimum Inhibitory Concentration (MIC: µg/ml)
Protocol: as §1

CC(C)(O/N=C(\C(=O)N[C@@H]1C(=O)N2C(C(=O)[O-])=C(C[n+]3ccccc3)CS[C@H]12)c1csc(N)n1)C(=O)O [Ceftazidime, reference compound]
MIC (Ps.cepacia 23): 1.56 µg/mL (≈ 2.85 µM)
MIC (E.coli CSH2 (RK1)): 0.1 µg/mL (≈ 0.183 µM)
MIC (S.epidermidis IAM12012): 3.12 µg/mL (≈ 5.71 µM)
MIC (P.vulgaris HX-19): 0.025 µg/mL (≈ 0.0457 µM)
MIC (C.freundii GN346/16): 0.2 µg/mL (≈ 0.366 µM)
MIC (S.aureus JS1): 50 µg/mL (≈ 91.5 µM)
MIC (P.vulgaris No. 33): 0.05 µg/mL (≈ 0.0915 µM)
MIC (E.coli GN5482): 3.12 µg/mL (≈ 5.71 µM)
MIC (S.aureus BB5703): 25 µg/mL (≈ 45.7 µM)
MIC (Ps.aeruginosa AK 109): 1.56 µg/mL (≈ 2.85 µM)
MIC (E.cloacae 963): 0.2 µg/mL (≈ 0.366 µM)
MIC (E.coli CSH(RE45)): 0.1 µg/mL (≈ 0.183 µM)
MIC (M.luteus ATCC9341): 1.56 µg/mL (≈ 2.85 µM)
MIC (Ps.aeruginosa IFO3445): 0.39 µg/mL (≈ 0.714 µM)
MIC (S.marcescens No. 16-2): 1.56 µg/mL (≈ 2.85 µM)
MIC (K.oxytoca GN10650): 0.2 µg/mL (≈ 0.366 µM)
MIC (A.calcoaceticus No. 4): 6.25 µg/mL (≈ 11.4 µM)
MIC (E.coli NIHJ JC2): 0.2 µg/mL (≈ 0.366 µM)
MIC (M.morganii GN5407): 0.1 µg/mL (≈ 0.183 µM)
MIC (C.freundii GN346): 25 µg/mL (≈ 45.7 µM)
MIC (Ps.aeruginosa AKR17): > 100 µg/mL
MIC (K.pneumoniae No. 42): 0.39 µg/mL (≈ 0.714 µM)
MIC (S.aureus 209P NIHJ-JC1): 6.25 µg/mL (≈ 11.4 µM)
MIC (K.pneumoniae PCI-602): 0.125 µg/mL (≈ 0.229 µM)
MIC (S.marcescens IAM 1184): 0.025 µg/mL (≈ 0.0457 µM)
MIC (E.cloacae Nek 39): 1.56 µg/mL (≈ 2.85 µM)
MIC (Ps.maltophilia GN 12873): 100 µg/mL (≈ 183 µM)
